{"source": "patent US12565501B2", "about": "“Muscarinic acetylcholine M1 receptor antagonists” (Contineum Therapeutics, Inc., priority 2019, dated 2026)", "data": [{"target": "T1, human M1 receptor (Homo sapiens, UniProt P11229)", "T1 sequence (P11229 1-460)": "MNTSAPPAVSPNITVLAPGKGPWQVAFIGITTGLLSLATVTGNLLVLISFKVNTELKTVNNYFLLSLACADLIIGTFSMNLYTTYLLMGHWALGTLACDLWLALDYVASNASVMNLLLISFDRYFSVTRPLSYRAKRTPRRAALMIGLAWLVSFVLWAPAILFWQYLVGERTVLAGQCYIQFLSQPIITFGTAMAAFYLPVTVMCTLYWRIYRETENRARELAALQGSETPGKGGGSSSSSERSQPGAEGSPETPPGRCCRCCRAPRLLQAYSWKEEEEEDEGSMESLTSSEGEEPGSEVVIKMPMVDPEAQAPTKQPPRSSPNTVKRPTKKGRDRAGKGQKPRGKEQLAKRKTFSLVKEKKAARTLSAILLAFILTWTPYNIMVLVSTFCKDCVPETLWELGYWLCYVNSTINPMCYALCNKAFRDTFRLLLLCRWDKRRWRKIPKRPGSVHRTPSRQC", "experiment": "In vitro functional assay of muscarinic acetylcholine receptor activity (aequorin calcium flux, reversal of EC80 acetylcholine response)", "assay_type": "cell-based", "settings": "CHO-K1 cells stably expressing human M1 receptor with aequorin; acetylcholine at EC80; calcium flux (luminescence); read-out: M1 IC50", "procedure,_shortened": "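CHO-K1 cells expressing human M1 and aequorin, loaded with 5 μM coelenterazine for 4 h, preincubated with compound 30 min at room temperature, then challenged with EC80 acetylcholine.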", "units": {"IC50": "nM"}, "values": [{"smiles": "Cc1noc(C)c1C(F)(F)CCC(=O)N1CC2CCC(C1)N2c1ccc(C#N)cn1", "note": "[Example 126, 6-(3-(4-(3,5-dimethylisoxazol-4-yl)-4,4-difluorobutanoyl)-3,8-diazabicyclo[3.2.1]octan-8-yl)nicotinonitrile]", "IC50": "< 10"}, {"smiles": "N#Cc1ccc(N2C3CCC2CN(C(=O)CCNC(CO)c2ccc(F)cc2)C3)nc1", "note": "[Example 130, 6-((3-(3-(((R)-1-(4-fluorophenyl)-2-hydroxyethyl)amino)propanoyl)-3,8-diazabicyclo[3.2.1]octan-8-yl)nicotinonitrile]", "IC50": "> 1000"}, {"smiles": "N#Cc1ccc(N2C3CCC2CN(C(=O)CCNC(CO)c2ccc(F)cc2)C3)nc1", "note": "[Example 131, 6-((3-(3-(((S)1-(4-fluorophenyl)-2-hydroxyethyl)amino)propanoyl)-3,8-diazabicyclo[3.2.1]octan-8-yl)nicotinonitrile]", "IC50": "1000 to 10000"}, {"smiles": "COc1cc(C(F)(F)/C=C/C(=O)N2CC3CCC(C2)N3c2ccc(C#N)cn2)ccn1", "note": "[Example 139, 6-(3-((E)-4,4-difluoro-4-(2-methoxypyridin-4-yl)but-2-enoyl)-3,8-diazabicyclo[3.2.1]octan-8-yl)nicotinonitrile]", "IC50": "< 10"}, {"smiles": "COc1cnccc1C(F)(F)CCC(=O)N1CC2CCC(C1)N2c1ccc(C#N)cn1", "note": "[Example 140, 6-(3-(4,4-difluoro-4-(3-methoxypyridin-4-yl)butanoyl)-3,8-diazabicyclo[3.2.1]octan-8-yl)nicotinonitrile]", "IC50": "< 10"}, {"smiles": "COc1ncccc1C(F)(F)/C=C/C(=O)N1C[C@H]2CC[C@@H](C1)N2c1ccc(C#N)cn1", "note": "[Example 141, 6-(3-((E)-4,4-difluoro-4-(2-methoxypyridin-3-yl)but-2-enoyl)-3,8-diazabicyclo[3.2.1]octan-8-yl)nicotinonitrile]", "IC50": "< 10"}, {"smiles": "COc1cncc(C(F)(F)/C=C/C(=O)N2CC3CCC(C2)N3c2ccc(C#N)cn2)c1", "note": "[Example 142, 6-(3-((E)-4,4-difluoro-4-(5-methoxypyridin-3-yl)but-2-enoyl)-3,8-diazabicyclo[3.2.1]octan-8-yl)nicotinonitrile]", "IC50": "< 10"}, {"smiles": "COc1ccncc1C(F)(F)/C=C/C(=O)N1C[C@H]2CC[C@@H](C1)N2c1ccc(C#N)cn1", "note": "[Example 143, 6-(3-((E)-4,4-difluoro-4-(4-methoxypyridin-3-yl)but-2-enoyl)-3,8-diazabicyclo[3.2.1]octan-8-yl)nicotinonitrile]", "IC50": "< 10"}, {"smiles": "COc1cccnc1C(F)(F)/C=C/C(=O)N1C[C@H]2CC[C@@H](C1)N2c1ccc(C#N)cn1", "note": "[Example 144, 6-(3-((E)-4,4-difluoro-4-(3-methoxypyridin-2-yl)but-2-enoyl)-3,8-diazabicyclo[3.2.1]octan-8-yl)nicotinonitrile]", "IC50": "< 10"}, {"smiles": "COc1cccc(C(F)(F)CCC(=O)N2CC3CCC(C2)N3c2ccc(C#N)cn2)n1", "note": "[Example 145, 6-(3-(4,4-difluoro-4-(6-methoxypyridin-2-yl)butanoyl)-3,8-diazabicyclo[3.2.1]octan-8-yl)nicotinonitrile]", "IC50": "< 10"}, {"smiles": "N#Cc1ccc(N2[C@@H]3CC[C@H]2CN(C(=O)/C=C/C(F)(F)c2cccn4ncnc24)C3)nc1", "note": "[Example 146, 6-(3-((E)-4-([1,2,4]triazolo[1,5-a]pyridin-8-yl)-4,4-difluorobut-2-enoyl)-3,8-diazabicyclo[3.2.1]octan-8-yl)nicotinonitrile]", "IC50": "< 10"}, {"smiles": "N#Cc1ccc(N2C3CCC2CN(C(=O)/C=C/C(F)(F)c2cccc4ncnn24)C3)nc1", "note": "[Example 148, 6-(-3-((E)-4-([1,2,4]triazolo[1,5-a]pyridin-5-yl)-4,4-difluorobut-2-enoyl)-3,8-diazabicyclo[3.2.1]octan-8-yl)nicotinonitrile]", "IC50": "< 10"}, {"smiles": "[2H]C([2H])([2H])Oc1cc(C(F)(F)/C=C/C(=O)N2CC3CCC(C2)N3c2ccc(C#N)cn2)ccn1", "note": "[Example 149, 6-(3-((E)-4,4-difluoro-4-(2-(methoxy-d3)pyridin-4-yl)but-2-enoyl)-3,8-diazabicyclo[3.2.1]octan-8-yl)nicotinonitrile]", "IC50": "< 10"}, {"smiles": "COc1cc(C(F)(F)CCCC(=O)N2CC3CCC(C2)N3c2ccc(C#N)cn2)ccn1", "note": "[Example 150, 6-(3-(5,5-difluoro-5-(2-methoxypyridin-4-yl)pentanoyl)-3,8-diazabicyclo[3.2.1]octan-8-yl)nicotinonitrile]", "IC50": "100 to 1000"}, {"smiles": "COc1cc(C2(/C=C/C(=O)N3CC4CCC(C3)N4c3ccc(C#N)cn3)CCC2)ccn1", "note": "[Example 151, 6-(3-((E)-3-(1-(2-methoxypyridin-4-yl)cyclobutyl)acryloyl)-3,8-diazabicyclo[3.2.1]octan-8-yl)nicotinonitrile]", "IC50": "< 10"}, {"smiles": "N#Cc1ccc(N2C3CCC2CN(C(=O)C2CC(O)(c4cccc5ncccc45)C2)C3)nc1", "note": "(centres unmarked) [Example 152, 6-(3-(3-hydroxy-3-(quinolin-5-yl)cyclobutane-1-carbonyl)-3,8-diazabicyclo[3.2.1]octan-8-yl)nicotinonitrile]", "IC50": "1000 to 10000"}, {"smiles": "COc1cc(C(F)(F)CCC(=O)N2C[C@@H]3C[C@H]2CN3c2ccc(C#N)cn2)ccn1", "note": "[Example 154, 6-((1S,4S)-5-(4,4-difluoro-4-(2-methoxypyridin-4-yl)butanoyl)-2,5-diazabicyclo[2.2.1]heptan-2-yl)nicotinonitrile]", "IC50": "1000 to 10000"}, {"smiles": "COc1cc(C(F)(F)CCC(=O)N2C[C@@H]3CC[C@H]2CN3c2ccc(C#N)cn2)ccn1", "note": "[Example 155, 6-((1S,4S)-5-(4,4-difluoro-4-(2-methoxypyridin-4-yl)butanoyl)-2,5-diazabicyclo[2.2.2]octan-2-yl)nicotinonitrile]", "IC50": "10 to 100"}, {"smiles": "COc1cc(C(F)(F)CCC(=O)N2CC3CCC(C2)N3c2ccnc(C#N)c2)ccn1", "note": "[Example 156, 4-(3-(4,4-difluoro-4-(2-methoxypyridin-4-yl)butanoyl)-3,8-diazabicyclo[3.2.1]octan-8-yl)picolinonitrile]", "IC50": "100 to 1000"}, {"smiles": "COc1cc(C(F)(F)CCC(=O)N2CC3CCC(C2)N3c2ccc(C)nn2)ccn1", "note": "[Example 157, 4,4-difluoro-4-(2-methoxypyridin-4-yl)-1-(8-(6-methylpyridazin-3-yl)-3,8-diazabicyclo[3.2.1]octan-3-yl)butan-1-one]", "IC50": "100 to 1000"}, {"smiles": "COc1ncccc1C(F)(F)CCC(=O)N1CC2CCC(C1)N2c1ccc(C#N)cn1", "note": "[Example 159, 6-(3-(4,4-difluoro-4-(2-methoxypyridin-3-yl)butanoyl)-3,8-diazabicyclo[3.2.1]octan-8-yl)nicotinonitrile]", "IC50": "< 10"}, {"smiles": "COc1cncc(C(F)(F)CCC(=O)N2CC3CCC(C2)N3c2ccc(C#N)cn2)c1", "note": "[Example 160, 6-(3-(4,4-difluoro-4-(5-methoxypyridin-3-yl)butanoyl)-3,8-diazabicyclo[3.2.1]octan-8-yl)nicotinonitrile]", "IC50": "< 10"}, {"smiles": "COc1ccncc1C(F)(F)CCC(=O)N1CC2CCC(C1)N2c1ccc(C#N)cn1", "note": "[Example 161, 6-(3-(4,4-difluoro-4-(4-methoxypyridin-3-yl)butanoyl)-3,8-diazabicyclo[3.2.1]octan-8-yl)nicotinonitrile]", "IC50": "< 10"}, {"smiles": "N#Cc1ccc(N2C3CCC2CN(C(=O)CCC(F)(F)c2cccc4ncnn24)C3)nc1", "note": "[Example 163, 6-(3-(4-([1,2,4]triazolo[1,5-a]pyridin-5-yl)-4,4-difluorobutanoyl)-3,8-diazabicyclo[3.2.1]octan-8-yl)nicotinonitrile]", "IC50": "< 10"}, {"smiles": "COc1cc(C2(CCC(=O)N3CC4CCC(C3)N4c3ccc(C#N)cn3)CCC2)ccn1", "note": "[Example 164, 6-(3-(3-(1-(2-methoxypyridin-4-yl)cyclobutyl)propanoyl)-3,8-diazabicyclo[3.2.1]octan-8-yl)nicotinonitrile]", "IC50": "< 10"}, {"smiles": "[2H]C([2H])([2H])Oc1cc(C(F)(F)CCC(=O)N2CC3CCC(C2)N3c2ccc(C#N)cn2)ccn1", "note": "[Example 165, 6-(3-(4,4-difluoro-4-(2-(methoxy-d3)pyridin-4-yl)butanoyl)-3,8-diazabicyclo[3.2.1]octan-8-yl)nicotinonitrile]", "IC50": "10 to 100"}, {"smiles": "C[C@@H](OCC(=O)N1C[C@H]2CC[C@@H](C1)N2c1ccc(C#N)cn1)c1ccccc1", "note": "[Example 178, 6-(3-(2-((R)-1-phenylethoxy)acetyl)-3,8-diazabicyclo[3.2.1]octan-8-yl)nicotinonitrile]", "IC50": "100 to 1000"}, {"smiles": "C[C@H](OCC(=O)N1CC2CCC(C1)N2c1ccc(C#N)cn1)c1ccccc1", "note": "[Example 179, 6-(3-(2-((S)-1-phenylethoxy)acetyl)-3,8-diazabicyclo[3.2.1]octan-8-yl)nicotinonitrile]", "IC50": "100 to 1000"}, {"smiles": "N#Cc1ccc(N2C3CCC2CN(C(=O)COC2(c4ccccc4)CC2)C3)nc1", "note": "[Example 180, 6-(3-(2-(1-phenylcyclopropoxy)acetyl)-3,8-diazabicyclo[3.2.1]octan-8-yl)nicotinonitrile]", "IC50": "10 to 100"}, {"smiles": "N#Cc1ccc(N2C3CCC2CN(C(=O)COC2(c4ccccc4Br)CC2)C3)nc1", "note": "[Example 181, 6-(3-(2-(1-(2-bromophenyl)cyclopropoxy)acetyl)-3,8-diazabicyclo[3.2.1]octan-8-yl)nicotinonitrile]", "IC50": "10 to 100"}, {"smiles": "C[C@H](OCC(=O)N1C[C@H]2CC[C@@H](C1)N2c1ccc(C#N)cn1)c1ccc(F)c(F)c1", "note": "[Example 182, 6-(3-(2-((S)-1-(3,4-difluorophenyl)ethoxy)acetyl)-3,8-diazabicyclo[3.2.1]octan-8-yl)nicotinonitrile]", "IC50": "10 to 100"}, {"smiles": "C[C@H](COCC(=O)N1CC2CCC(C1)N2c1ccc(C#N)cn1)c1ccccc1", "note": "[Example 186, 6-(3-(2-((S)-2-phenylpropoxy)acetyl)-3,8-diazabicyclo[3.2.1]octan-8-yl)nicotinonitrile]", "IC50": "1000 to 10000"}]}]}
